These results are taken from publication PMC7734798 (ACS Medicinal Chemistry Letters, 2020).

The structures appear in SMILES notation.

Data set [1] can be described thus: Rat plasma stability assay (LC-DAD-MS/MS). It counts as in vitro ADME. Particulars: 1 h of incubation at 37 °C. How it is done: Our aim was to develop plasma-stable conjugates that would be hydrolyzed in the brain. Selective localized hydrolysis of conjugates 1 and 2 would permit a CNS-targeted profile and less side effects. Thus, plasma stability is an important pharmacokinetic prerequisite for 1 and 2. As reported by stability assays performed by LC-DAD-MS/MS analysis (Figure 3), conjugates 1 and 2 are stable for more than 85% after 1 h of incubation at 37 °C in rat plasma. […] The mean plasma remaining fraction of the two conjugates after 1 h of incubation was compared by means of t test and a statistically relevant difference (p < 0.01) was observed.
Velp (Usmate, Italy) RX3 vortex mixer and an Elma (Singen, Germany) Sonic T310 Trans ultrasonic […]
Chromatographic runs were obtained on an Agilent (Palo Alto, Ca, US) ZORBAX SB-C18 column (50 × 2.1 mm I.D., 3.5 µm particles), maintained at room temperature and equipped with a guard column. […] For compound stability and hydrolysis studies, multiple reaction monitoring (MRM) acquisition mode was set up for both compounds 1 and 2, by flow-injection analysis directly in the MS source, in order to optimize ionization parameters and to select two exclusive MRM m/z transitions for each analyte, exploited for quantitative purposes and for qualitative confirmation, respectively. […]

The next data set relates to Olig2. Description: Oli-Neu proliferation marker Olig2 expression (Western blot). It counts as cell-based, mouse. Particulars: Oli-Neu cells, 5 μM, 48 h. From the text: OPC proliferation and migration to the CNS injury site as well as their differentiation are critical steps toward remyelination in MS. HDAC activity plays a crucial role in OPC proliferation/differentiation; therefore, HDAC modulation is widely considered a promising therapeutic target for MS.[30] […] Therefore, we tested the effect of our compounds on OPC proliferation and differentiation, through cell counting, measure of filaments, and analysis of proliferation/differentiation markers (Figure 7).
Oli-Neu cells were grown in SATO medium (DMEM medium, 2 mM glutamine, 10 μg/ml insulin, 5.5 μg/ml transferrin, 38.72 nM sodium selenite, 100 µM putrescine, 520 nM L-thyroxine (T4), 500 nM triiodo-L-thyronine (T3), 200 nM progesterone, 25 μg/ml of gentamycin) supplemented with 1% heat-inactivated horse serum (HS) in a humidified, 5% CO2 incubator at 37°C. Cell culture medium and all chemicals were from Sigma-Aldrich, except for insulin-transferrin-sodium selenite 100X supplement (Life Technologies Corporation). Cells were plated on 96 well plates, previously coated with 10 μg/mL poly-L-lysine (Sigma-Aldrich; 10 μg/ml) at the density of 2.5 x 10 4/0.2 mL medium/well and treated with increasing concentrations of the compounds (0.5, 1, 5 and 10 μM).
After 24 hours, the viability was evaluated through the MTT assay.
Oli-Neu cells proliferation and differentiation assay
48 hours, for cell counting and measure of filaments, 5 random images for each condition were acquired with an Eclipse TS100 (Nikon) microscope using a 10X objective. Cells number and filament length were measured with Fiji ImageJ2 software. After 48 hours for proliferation and 72 hours of treatment for differentiation analysis, cells were lysed in ice-cold lysis buffer (50 mM Tris-HCl pH 7.4, 1% SDS, 0.05% protease inhibitor cocktail; all from Sigma-Aldrich) and protein content was determined by using the Lowry method. […]
For orientation: In western blotting, separated proteins are transferred to a membrane and probed.

Consider `CC/C=C\C/C=C\C/C=C\CCCCCCCC(=O)NCCOC(=O)C(CCC)CCC` [compound 2], for which the “percentage remaining upon incubation in rat plasma” value in data set [1] is on record as 85%. Further, the “expression of Olig2, marker of OPCs proliferation” value in the data set on Olig2 is listed as “marked decrease”.

With `CC/C=C\C/C=C\C/C=C\CCCCCCCC(=O)NCCNC(=O)C(CCC)CCC` [compound 1], the “percentage remaining upon incubation in rat plasma” value in data set [1] worked out at 89%. For the same compound, in the data set on Olig2, the “expression of Olig2, marker of OPCs proliferation” value is on record as “marked decrease”.
